Test results taken from US4154730A, “Novel 17-spirosultines” (Roussel Uclaf, priority 1976, dated 1979).

Columns and labels:
[1] = molecular target: T1, progesterone receptor (hormonal receptor of rabbit uterus cytosol) (Oryctolagus cuniculus, UniProt P06186); assay: Progestomimetic activity by the method of hormonal receptors: displacement of tritiated product R in uterus cytosol; format: binding; settings: tritiated 17,21-dimethyl-19-nor-Δ4,9-pregnadiene-3,20-dione, 0° C., 2 hours, progesterone = 100
T1 construct: The uterus was removed and homogenized in a buffered mixture; from tissue; host or cells: uterus cytosol (105,000 g supernatant) of impuberic rabbits primed with estradiol
T1 sequence (P06186 1-930): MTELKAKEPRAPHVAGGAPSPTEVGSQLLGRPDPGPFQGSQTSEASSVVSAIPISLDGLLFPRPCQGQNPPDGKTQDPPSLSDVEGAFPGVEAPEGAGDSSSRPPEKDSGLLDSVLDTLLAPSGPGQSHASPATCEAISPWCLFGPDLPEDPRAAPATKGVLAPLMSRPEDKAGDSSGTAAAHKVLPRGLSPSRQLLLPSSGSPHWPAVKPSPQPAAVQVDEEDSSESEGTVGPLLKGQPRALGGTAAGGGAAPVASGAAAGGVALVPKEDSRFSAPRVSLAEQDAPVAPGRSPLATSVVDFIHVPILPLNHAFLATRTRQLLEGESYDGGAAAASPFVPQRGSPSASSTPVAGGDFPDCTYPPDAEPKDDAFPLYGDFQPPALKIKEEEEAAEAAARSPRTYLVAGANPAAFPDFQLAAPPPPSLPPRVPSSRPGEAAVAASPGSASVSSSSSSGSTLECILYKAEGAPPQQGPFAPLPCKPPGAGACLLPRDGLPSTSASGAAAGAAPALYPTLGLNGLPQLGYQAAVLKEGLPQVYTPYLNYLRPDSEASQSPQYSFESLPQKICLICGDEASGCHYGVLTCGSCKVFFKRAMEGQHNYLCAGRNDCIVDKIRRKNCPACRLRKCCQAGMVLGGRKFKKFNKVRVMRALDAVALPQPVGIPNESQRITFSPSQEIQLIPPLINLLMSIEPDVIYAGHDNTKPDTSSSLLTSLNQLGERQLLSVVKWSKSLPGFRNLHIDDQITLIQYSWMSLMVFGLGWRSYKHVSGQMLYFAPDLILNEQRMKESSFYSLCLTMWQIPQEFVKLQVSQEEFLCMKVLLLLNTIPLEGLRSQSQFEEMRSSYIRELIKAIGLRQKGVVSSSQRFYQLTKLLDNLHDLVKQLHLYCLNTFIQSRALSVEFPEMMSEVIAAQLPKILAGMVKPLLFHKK
Description: Ster. Biochem., Vol. 6 (1975), p. 615-622 and Physiology and Genetics of Reproduction, part A (1975), p. 143-160]. Impuberic rabbits received percutaneously 25 γ of estradiol and 5 days later, the animals were killed. The uterus was removed and homogenized in a buffered mixture of 10 mM of tromethamine, 0.25 M of saccharose and sufficient hydrochloric acid for a pH of 7.4. The homogenate was centrifuged at 105,000 g for one hour and the liquid surnageant or cytosol was adjusted to obtain a dilution of 1:50 (weight of uterus to volume). […] B/T max. is the percentage of tritiated product R bound when no product was added and B/T min. is the percentage of tritiated product R bound when the maximum quantity of cold product R is added. The intersections of line I50 and the curves permit the determination of the CP and CX values. CP is the concentration of cold progesterone which inhibits by 50% the fixation of tritiated product R and CX is the concentration of test product which inhibits by 50% the fixation of tritiated product R. The relative affinity of the test product or RLA is determined by the formula [formula] and the results are reported in Table I.

[2] = test system: activity of monoacetate of aldosterone (urinary sodium/potassium ratio); assay: Antialdosteronic activity in surrenalectomized rats; format: in vivo, rat (Sprague Dawley); settings: male surrenalectomized rats, test product 5 mg/kg subcutaneously, urine collected for 4 hours
Description: Male rats of the Sprague Dawley strain weighing about 180 g were subjected to surrenalectomy and at this moment, the rats received a drink of physiological serum. After about 2 days, the animals were fasted for 16 hours and then received a drink of an aqueous 5% glucose solution. The test products were administered subcutaneously at about 16 hours in the form of a solution or suspension in a 0.25% aqueous carboxymethyl cellulose solution containing Tween 80. One hour later, the animals received on the one hand intraperitoneally a hydrosaline surcharge at a dose of 5 ml/per rat of a 0.9% physiological serum and on the other hand subcutaneously 1 μg/kg of the monoacetate of aldosterone in a 2.5% alcoholic solution. The rats were placed in diuresis cages without food or drink for 4 hours and after this time, a forced urination was effected by pressure on the bladder. The volume of the obtained urine was adjusted to 50 ml and the amounts of sodium and potassium present was determined by an autoanalyzer. The results are expressed as a percentage of inhibition of the activity of 1 μg/kg of subcutaneously injected monoacetate of aldosterone by the ratio of sodium concentration to potassium concentration of the surrenalectomized rats.

Row | RLA (relative affinity of the test product, from CP and CX) [1] | Structure (SMILES) | percentage of inhibition of the activity of 1 μg/kg of subcutaneously injected monoacetate of aldosterone (sodium/potassium ratio) [2]
1 | 280 | C[C@]12CCC3=C4CCC(=O)C=C4CC[C@H]3[C@@H]1CC[C@@]21CCS(=O)O1 (stereo partly drawn) [product A, B isomer of (17R) 2'-oxidospiro-[Δ^4,9-estradiene-17,5'-(1',2')-oxathiolane]-3-one] | 88%
2 | 400 | C[C@]12C=CC3=C4CCC(=O)C=C4CC[C@H]3[C@@H]1CC[C@@]21CCS(=O)O1 (stereo partly drawn) [product B, B isomer of (17R) 2'-oxidospiro-[Δ^4,9,11-estratriene-17,5'-(1',2')-oxathiolane]-3-one] | 
